According to patent US20230233600A1, “IMPROVED VIRUCIDAL FORMULATIONS” (priority 2020, published 2023):
Where two headings read alike, the source gives them in different places.

System: SARS-CoV-2
Type: cell-based
Settings: for LRV (log reduction value), reduction of virus compared to the virus control / Virus Titer: solution at 90%
[1] = incubation 15 seconds at 37° C.
[2] = incubation 15 minutes at 37° C.

CCO [Ethanol]
LRV (log reduction value), reduction of virus compared to the virus control [1]: 4.3 | Virus Titer [1]: 0.67 Log10 CCID50 of virus per mL | LRV (log reduction value), reduction of virus compared to the virus control (incubation 5 minutes at 37° C.): >4.3 | Virus Titer (incubation 5 minutes at 37° C.): <0.67 Log10 CCID50 of virus per mL | LRV (log reduction value), reduction of virus compared to the virus control [2]: >4.3 | Virus Titer [2]: <0.67 Log10 CCID50 of virus per mL | virus titer (baseline reached) (positive control, contact time not given): 0.67 log10 CCID50/ml
